Test results published in patent publication US8192962B2, “Processes for detecting toxic substances” (Daikin Industries, Ltd., priority 2001, dated 2012).

System: Metabolism protein genes
Assay: DNA chip mRNA expression in yeast, metabolism protein genes (Table 7)
Format: cell-based, Saccharomyces cerevisiae S288C
Description: Yeast (Saccharomyces cerevisiae S288C (α SUC2mal mel gap2 CUP1)) were incubated at 25° C. on YPD medium (yeast extract 1%, polypepton 2%, glucose 2%). One of toxic chemical substances was added to the cells at logarithmic growth phase, and the cells were further incubated for two hours. Cells were cultured without any chemical substance in the same condition, and were used as control. Concentrations of the chemical substances were defined to inhibit the growth of the yeast but not lead to death.
After completion of the incubation, the culture was centrifuged to collect the cells. To the cells, sodium acetate buffer (50 mM sodium acetate, 10 mM EDTA, 1% SDS) was added, and the mixture was shaken at 65° C. for five minutes, followed by returning to room temperature, and obtaining the supernatant, of which the procedures were repeated two times. To the supernatant, ½ amount of a solution of phenol/chloroform was added, and the mixture was centrifuged to give a supernatant, which was added with an equal amount of chloroform, and the mixture was centrifuged to give a supernatant. To the supernatant, an equal amount of isopropanol containing 0.3 M sodium acetate was added, and the mixture was allowed to stand at room temperature for 30 minutes, after which the mixture was centrifuged to give a sediment of the whole RNAs. Seventy % ethanol was added to the sediment, and the mixture was again centrifuged to give a sediment, which was then dried and dissolved in water. mRNA was isolated from the whole RNAs as followings. In view of the fact that a poly A chain is attached to the 3′ terminus of mRNA, a polynucleotide having a poly T structure which was immobilized on the surface of latex beads was used to trap the mRNA, and then the mRNA was washed and eluted with spine column (Oligotex-dT30<Super>mRNA Purification Kit, Takara). Reverse transcription of the mRNA was conducted with a reverse transcriptase (Super Script II Reverse Transcriptase; catalogue No. 18064-014, GibcoBRL) using fluorescence-labeled nucleotides to give cDNAs that were introduced with Cy3-dUTP or Cy5-dUTP during the reverse transcription.
The labeled cDNAs were dissolved in TE buffer (10mM Tris-HCl/1 mM EDTA, pH8.0), and the solution was dropped on the DNA chip containing the whole genes of yeast (DNA Chip Research Inc. Japan) so that the cDNAs were hybridized on the DNA chip at 65° C. for over 12 hours. The fluoresces intensity of the DNA chip was read with a scanner, and the ratio relative to the fluorescence intensity resulting from the absence of chemical substance was estimated as the following, which is shown in Tables 1 to 9: […]

## C=CC=O [(14), acrolein]
Yeast gene YAL012W
  The level of expressed mRNA in the presence of chemical substance/The level of expressed mRNA in the absence of chemical substance: 0.9
Yeast gene YAL038W
  The level of expressed mRNA in the presence of chemical substance/The level of expressed mRNA in the absence of chemical substance: 0.5
Yeast gene YBR003W
  level of expressed mRNA in the presence/in the absence of chemical substance: 0.8
Yeast gene YBR011C
  level of expressed mRNA in the presence/in the absence of chemical substance: 0.9
Yeast gene YBR020W
  level of expressed mRNA in the presence/in the absence of chemical substance: 1.0
Yeast gene YBR023C
  The level of expressed mRNA in the presence of chemical substance/The level of expressed mRNA in the absence of chemical substance: 0.8
Yeast gene YBR029C
  The level of expressed mRNA in the presence of chemical substance/The level of expressed mRNA in the absence of chemical substance: 0.9
Yeast gene YBR068C
  The level of expressed mRNA in the presence of chemical substance/The level of expressed mRNA in the absence of chemical substance: 1.8
Yeast gene YBR183W
  The level of expressed mRNA in the presence of chemical substance/The level of expressed mRNA in the absence of chemical substance: 1.3
Yeast gene YBR222C
  The level of expressed mRNA in the presence of chemical substance/The level of expressed mRNA in the absence of chemical substance: 0.5
Yeast gene YBR256C
  The level of expressed mRNA in the presence of chemical substance/The level of expressed mRNA in the absence of chemical substance: 5.6
Yeast gene YCL009C
  The level of expressed mRNA in the presence of chemical substance/The level of expressed mRNA in the absence of chemical substance: 0.7
Yeast gene YCL064C
  The level of expressed mRNA in the presence of chemical substance/The level of expressed mRNA in the absence of chemical substance: 0.8
Yeast gene YCR010C
  level of expressed mRNA in the presence/in the absence of chemical substance: 1.2
Yeast gene YCR034W
  level of expressed mRNA in the presence/in the absence of chemical substance: 0.6
Yeast gene YCR048W
  The level of expressed mRNA in the presence of chemical substance/The level of expressed mRNA in the absence of chemical substance: 0.9
Yeast gene YCR098C
  The level of expressed mRNA in the presence of chemical substance/The level of expressed mRNA in the absence of chemical substance: 1.1
Yeast gene YDR019C
  The level of expressed mRNA in the presence of chemical substance/The level of expressed mRNA in the absence of chemical substance: 1.6
Yeast gene YDR050C
  level of expressed mRNA in the presence/in the absence of chemical substance: 1.2
Yeast gene YDR073W
  level of expressed mRNA in the presence/in the absence of chemical substance: 1.2
Yeast gene YDR123C
  level of expressed mRNA in the presence/in the absence of chemical substance: 0.7
Yeast gene YDR178W
  level of expressed mRNA in the presence/in the absence of chemical substance: 1.5
Yeast gene YDR277C
  level of expressed mRNA in the presence/in the absence of chemical substance: 1.3
Yeast gene YDR284C
  level of expressed mRNA in the presence/in the absence of chemical substance: 1.3
Yeast gene YDR345C
  level of expressed mRNA in the presence/in the absence of chemical substance: 0.8
Yeast gene YDR380W
  The level of expressed mRNA in the presence of chemical substance/The level of expressed mRNA in the absence of chemical substance: 0.6
Yeast gene YDR400W
  level of expressed mRNA in the presence/in the absence of chemical substance: 0.9
Yeast gene YDR408C
  level of expressed mRNA in the presence/in the absence of chemical substance: 0.9
Yeast gene YDR483W
  level of expressed mRNA in the presence/in the absence of chemical substance: 0.8
Yeast gene YDR497C
  The level of expressed mRNA in the presence of chemical substance/The level of expressed mRNA in the absence of chemical substance: 0.6
Yeast gene YDR502C
  The level of expressed mRNA in the presence of chemical substance/The level of expressed mRNA in the absence of chemical substance: 0.8
Yeast gene YDR516C
  The level of expressed mRNA in the presence of chemical substance/The level of expressed mRNA in the absence of chemical substance: 0.7
Yeast gene YEL063C
  level of expressed mRNA in the presence/in the absence of chemical substance: 0.8
Yeast gene YER015W
  level of expressed mRNA in the presence/in the absence of chemical substance: 1.1
Yeast gene YER026C
  The level of expressed mRNA in the presence of chemical substance/The level of expressed mRNA in the absence of chemical substance: 1.1
Yeast gene YER053C
  The level of expressed mRNA in the presence of chemical substance/The level of expressed mRNA in the absence of chemical substance: 1.3
Yeast gene YER069W
  The level of expressed mRNA in the presence of chemical substance/The level of expressed mRNA in the absence of chemical substance: 1.3
Yeast gene YER081W
  level of expressed mRNA in the presence/in the absence of chemical substance: 1.6
Yeast gene YER096W
  The level of expressed mRNA in the presence of chemical substance/The level of expressed mRNA in the absence of chemical substance: 3.1
Yeast gene YER120W
  level of expressed mRNA in the presence/in the absence of chemical substance: 0.9
Yeast gene YER178W
  The level of expressed mRNA in the presence of chemical substance/The level of expressed mRNA in the absence of chemical substance: 0.9
Yeast gene YFL011W
  level of expressed mRNA in the presence/in the absence of chemical substance: 0.8
Yeast gene YFL014W
  The level of expressed mRNA in the presence of chemical substance/The level of expressed mRNA in the absence of chemical substance: 7.3
Yeast gene YFL030W
  The level of expressed mRNA in the presence of chemical substance/The level of expressed mRNA in the absence of chemical substance: 0.8
Yeast gene YFL031W
  The level of expressed mRNA in the presence of chemical substance/The level of expressed mRNA in the absence of chemical substance: 0.4
Yeast gene YFL056C
  The level of expressed mRNA in the presence of chemical substance/The level of expressed mRNA in the absence of chemical substance: 7.8
